Experimental data: PMC10008561 (Nature Communications, 2023)
Several values for one entry are separate records, joined by “and”; a condition that tells them apart may be missing. Equal values may be shown once. Read-outs that look alike come from different tables or passages of the source.

What was measured:
KOR K227A = KOR K227A (Homo sapiens, UniProt P41145, K227A); format: cell-based; set-up: TEV cleavage site (C); tTA transcription factor (C); expressed in transfected cells; host or cells: HTLA cells; settings: Log [Drug]
human KOR [1] = target: T1, human KOR (Homo sapiens, UniProt P41145, S211A); test: cell-based; settings: HEK-293T
T1 construct: expressed in transfected cells; host or cells: HEK 293T (ATCC, CRL-3216)

human KOR [2] = target: human KOR (Homo sapiens, UniProt P41145); test: cell-based
human KOR [3] = target: T2, human KOR (Homo sapiens, UniProt P41145, G319L); test: cell-based; settings: HEK-293T
T2 construct: expressed in transfected cells; host or cells: HEK 293T (ATCC, CRL-3216)

human KOR [4] = target: T3, human KOR (Homo sapiens, UniProt P41145, K227A); test: cell-based; settings: HEK-293T
T3 construct: expressed in transfected cells; host or cells: HEK 293T (ATCC, CRL-3216)

human KOR [5] = target: T4, human KOR (Homo sapiens, UniProt P41145, W124L); test: cell-based; settings: HEK-293T
T4 construct: expressed in transfected cells; host or cells: HEK 293T (ATCC, CRL-3216)

human KOR [6] = target: T5, human KOR (Homo sapiens, UniProt P41145, E209A); test: cell-based; settings: HEK-293T
T5 construct: expressed in transfected cells; host or cells: HEK 293T (ATCC, CRL-3216)

human KOR [7] = target: T6, human KOR (Homo sapiens, UniProt P41145, W287A); test: cell-based; settings: HEK-293T
T6 construct: expressed in transfected cells; host or cells: HEK 293T (ATCC, CRL-3216)

human KOR [8] = target: T7, human KOR (Homo sapiens, UniProt P41145, S324C); test: cell-based; settings: HEK-293T
T7 construct: expressed in transfected cells; host or cells: HEK 293T (ATCC, CRL-3216)

human KOR [9] = target: T8, human KOR (Homo sapiens, UniProt P41145, Q115N); test: cell-based; settings: HEK-293T
T8 construct: expressed in transfected cells; host or cells: HEK 293T (ATCC, CRL-3216)

human KOR [10] = target: T9, human KOR (Homo sapiens, UniProt P41145, F114L); test: cell-based; settings: HEK-293T
T9 construct: expressed in transfected cells; host or cells: HEK 293T (ATCC, CRL-3216)

human KOR [11] = target: T10, human KOR (Homo sapiens, UniProt P41145, Y320L); test: cell-based; settings: HEK-293T
T10 construct: expressed in transfected cells; host or cells: HEK 293T (ATCC, CRL-3216)

human KOR (Gi3) [12] = target: T11, human KOR (Gi3) (Homo sapiens, UniProt P41145, K200A); test: cell-based; settings: HEK-293T
T11 construct: expressed in transfected cells; host or cells: HEK293T

human KOR (Gi3) [13] = target: T12, human KOR (Gi3) (Homo sapiens, UniProt P41145, R274A); test: cell-based; settings: HEK-293T
T12 construct: expressed in transfected cells; host or cells: HEK293T

human KOR (Gi3) [14] = target: T13, human KOR (Gi3) (Homo sapiens, UniProt P41145, D266A); test: cell-based; settings: HEK-293T
T13 construct: expressed in transfected cells; host or cells: HEK293T

human KOR (Gi3) [15] = target: T14, human KOR (Gi3) (Homo sapiens, UniProt P41145, D155A); test: cell-based; settings: HEK-293T
T14 construct: expressed in transfected cells; host or cells: HEK293T

human KOR (Gi3) [16] = target: T15, human KOR (Gi3) (Homo sapiens, UniProt P41145, Y139L); test: cell-based; settings: HEK-293T
T15 construct: expressed in transfected cells; host or cells: HEK293T

human KOR (Gi3) [17] = target: T16, human KOR (Gi3) (Homo sapiens, UniProt P41145, D105A); test: cell-based; settings: HEK-293T
T16 construct: expressed in transfected cells; host or cells: HEK293T

human KOR (Gi3) [18] = target: T17, human KOR (Gi3) (Homo sapiens, UniProt P41145, G319L); test: cell-based; settings: HEK-293T
T17 construct: expressed in transfected cells; host or cells: HEK293T

human KOR (Gi3) [19] = target: T18, human KOR (Gi3) (Homo sapiens, UniProt P41145, N141A); test: cell-based; settings: HEK-293T
T18 construct: expressed in transfected cells; host or cells: HEK293T

human KOR (Gi3) [20] = target: T19, human KOR (Gi3) (Homo sapiens, UniProt P41145); test: cell-based
T19 construct: expressed in transfected cells; host or cells: HEK293T

human KOR (Gi3) [21] = target: T20, human KOR (Gi3) (Homo sapiens, UniProt P41145, F283A); test: cell-based; settings: HEK-293T
T20 construct: expressed in transfected cells; host or cells: HEK293T
T20 sequence (P41145 whole entry F283A): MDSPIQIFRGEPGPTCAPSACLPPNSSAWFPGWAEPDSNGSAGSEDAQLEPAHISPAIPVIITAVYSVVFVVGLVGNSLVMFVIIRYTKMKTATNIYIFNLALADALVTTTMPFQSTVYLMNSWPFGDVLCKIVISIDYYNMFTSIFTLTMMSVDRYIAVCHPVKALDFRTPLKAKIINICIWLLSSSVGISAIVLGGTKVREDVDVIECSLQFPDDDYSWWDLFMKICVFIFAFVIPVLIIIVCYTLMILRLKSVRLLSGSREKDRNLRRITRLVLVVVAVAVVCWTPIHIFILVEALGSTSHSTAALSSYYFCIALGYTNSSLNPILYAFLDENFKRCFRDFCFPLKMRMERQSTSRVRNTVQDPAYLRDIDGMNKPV

T1 sequence (P41145 whole entry S211A): as the sequence (P41145 whole entry F283A) above, with S211A, A283F counted along it
T5 sequence (P41145 whole entry E209A): as the sequence (P41145 whole entry F283A) above, with E209A, A283F counted along it
T10 sequence (P41145 whole entry Y320L): as the sequence (P41145 whole entry F283A) above, with A283F, Y320L counted along it
KOR K227A, sequence (P41145 whole entry K227A): as the sequence (P41145 whole entry F283A) above, with K227A, A283F counted along it
KOR K227A, sequence (P32121 whole entry partner): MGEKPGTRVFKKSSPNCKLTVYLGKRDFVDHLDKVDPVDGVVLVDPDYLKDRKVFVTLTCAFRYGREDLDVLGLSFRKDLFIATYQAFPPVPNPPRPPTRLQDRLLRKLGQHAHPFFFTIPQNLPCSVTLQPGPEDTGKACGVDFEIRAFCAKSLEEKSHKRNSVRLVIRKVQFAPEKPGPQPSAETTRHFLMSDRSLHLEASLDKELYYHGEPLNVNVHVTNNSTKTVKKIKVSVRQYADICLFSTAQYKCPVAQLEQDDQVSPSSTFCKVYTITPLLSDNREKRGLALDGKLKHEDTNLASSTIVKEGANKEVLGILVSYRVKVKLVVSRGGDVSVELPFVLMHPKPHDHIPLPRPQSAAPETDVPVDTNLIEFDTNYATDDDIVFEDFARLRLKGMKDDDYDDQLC
T9 sequence (P41145 whole entry F114L): as the sequence (P41145 whole entry F283A) above, with F114L, A283F counted along it
T2 sequence (P41145 whole entry G319L): as the sequence (P41145 whole entry F283A) above, with A283F, G319L counted along it
T4 sequence (P41145 whole entry W124L): as the sequence (P41145 whole entry F283A) above, with W124L, A283F counted along it
T19 sequence (P41145 whole entry): as the sequence (P41145 whole entry F283A) above, with A283F counted along it
T6 sequence (P41145 whole entry W287A): as the sequence (P41145 whole entry F283A) above, with A283F, W287A counted along it
T8 sequence (P41145 whole entry Q115N): as the sequence (P41145 whole entry F283A) above, with Q115N, A283F counted along it
T7 sequence (P41145 whole entry S324C): as the sequence (P41145 whole entry F283A) above, with A283F, S324C counted along it
human KOR (Homo sapiens, UniProt P41145), sequence (P41145 whole entry): as the sequence (P41145 whole entry F283A) above, with A283F counted along it
T18 sequence (P41145 whole entry N141A): as the sequence (P41145 whole entry F283A) above, with N141A, A283F counted along it
T15 sequence (P41145 whole entry Y139L): as the sequence (P41145 whole entry F283A) above, with Y139L, A283F counted along it
T12 sequence (P41145 whole entry R274A): as the sequence (P41145 whole entry F283A) above, with R274A, A283F counted along it
T13 sequence (P41145 whole entry D266A): as the sequence (P41145 whole entry F283A) above, with D266A, A283F counted along it
T3 sequence (P41145 whole entry K227A): as the sequence (P41145 whole entry F283A) above, with K227A, A283F counted along it
T16 sequence (P41145 whole entry D105A): as the sequence (P41145 whole entry F283A) above, with D105A, A283F counted along it
T17 sequence (P41145 whole entry G319L): as the sequence (P41145 whole entry F283A) above, with A283F, G319L counted along it
T11 sequence (P41145 whole entry K200A): as the sequence (P41145 whole entry F283A) above, with K200A, A283F counted along it
T14 sequence (P41145 whole entry D155A): as the sequence (P41145 whole entry F283A) above, with D155A, A283F counted along it

Compound: CN(C(=O)/C=C/c1ccoc1)[C@@H]1CC[C@@]2(O)[C@H]3Cc4ccc(O)c5c4[C@@]2(CCN3CC2CC2)[C@H]1O5 [Nalfurafine, nalfurafine]
- KOR K227A_Arrestin response (Figure S4D) (KOR K227A; M -6, replicate values): 101.315 and 102.717
- KOR K227A_Arrestin response (Figure S4D) (KOR K227A; M -6.5, replicate values): 105.822 and 93.8848 and 97.1199
- KOR K227A_Arrestin response (Figure S4D) (KOR K227A; M -7, replicate values): 91.3062 and 96.8492 and 89.7833
- KOR K227A_Arrestin response (Figure S4D) (KOR K227A; M -7.5, replicate values): 70.8658 and 86.1016
- KOR K227A_Arrestin response (Figure S4D) (KOR K227A; M -8, replicate values): 84.9439 and 77.9998
- KOR K227A_Arrestin response (Figure S4D) (KOR K227A; M -8.5, replicate values): 65.7403 and 77.6179 and 69.9994
- KOR K227A_Arrestin response (Figure S4D) (KOR K227A; M -9, replicate values): 59.6373 and 67.8004 and 59.0282
- KOR K227A_Arrestin response (Figure S4D) (KOR K227A; M -9.5, replicate values): 49.3052 and 47.5598 and 61.4935
- KOR K227A_Arrestin response (Figure S4D) (KOR K227A; M -10, replicate values): 39.6619 and 44.8012 and 31.3899
- KOR K227A_Arrestin response (Figure S4D) (KOR K227A; M -10.5, replicate values): 20.4503 and 25.5006 and 21.705
- KOR K227A_Arrestin response (Figure S4D) (KOR K227A; M -11, replicate values): 23.8027 and 10.0134 and 11.9765
- KOR K227A_Arrestin response (Figure S4D) (KOR K227A; M -12, replicate values): 12.7008 and 13.5043
- KOR K227A_Arrestin response (Figure S4D) (KOR K227A; M -12.5, replicate values): 6.071 and 3.454 and 8.161
- KOR K227A_Arrestin response (Figure S4D) (KOR K227A; M -13, replicate values): 5.581 and 8.377 and 4.789
- KOR K227A_Arrestin response (Figure S4D) (KOR K227A; M -14, replicate values): 0.5358 and 5.464 and 0.3918
- Emax (human KOR [1]): 107 ± 2%
- activation at 1 pM (human KOR [1]; read-out: cAMP response): 16.4%
- activation at 3.162 pM (human KOR [1]; read-out: cAMP response): 71%
- activation at 10 pM (human KOR [1]; read-out: cAMP response): 91.3%
- activation at 31.62 pM (human KOR [1]; read-out: cAMP response): 99.8%
- activation at 0.0001 µM (human KOR [1]; read-out: cAMP response): 106%
- activation at 0.001 µM (human KOR [1]; read-out: cAMP response): 107%
- activation at 0.01 µM (human KOR [1]; read-out: cAMP response): 108%
- activation at 0.1 µM (human KOR [1]; read-out: cAMP response): 107%
- activation at 1 µM (human KOR [1]; read-out: cAMP response): 103%
- activation at […] (human KOR [1]; read-out: cAMP response): 107% (2×) and 105% and 104%
- reduction of potency (human KOR [2]): 5 fold
- Emax (human KOR [3]): 103 ± 4%
- activation at 1 pM (human KOR [3]; read-out: cAMP response): 18.4%
- activation at 31.62 pM (human KOR [3]; read-out: cAMP response): 24%
- activation at 0.0001 µM (human KOR [3]; read-out: cAMP response): 46%
- activation at 0.001 µM (human KOR [3]; read-out: cAMP response): 62.9%
- activation at 0.01 µM (human KOR [3]; read-out: cAMP response): 94.9%
- activation at 0.1 µM (human KOR [3]; read-out: cAMP response): 107%
- activation at 1 µM (human KOR [3]; read-out: cAMP response): 104%
- activation at […] (human KOR [3]; read-out: cAMP response): 44.6% and 75.9% and 100%
- Emax (human KOR [4]): 100 ± 3%
- Emax (human KOR [5]): 98 ± 3%
- activation at 10 pM (human KOR [5]; read-out: cAMP response): 17.5%
- activation at 0.0001 µM (human KOR [5]; read-out: cAMP response): 29.6%
- activation at 0.001 µM (human KOR [5]; read-out: cAMP response): 65.5%
- activation at 0.01 µM (human KOR [5]; read-out: cAMP response): 88.1%
- activation at 0.1 µM (human KOR [5]; read-out: cAMP response): 106%
- activation at 1 µM (human KOR [5]; read-out: cAMP response): 99.8%
- activation at […] (human KOR [5]; read-out: cAMP response): 45.8% and 75.2% and 98.3% and 97.1%
- Emax (human KOR [6]): 100 ± 2%
- activation at 1 pM (human KOR [6]; read-out: cAMP response): 28.4%
- activation at 3.162 pM (human KOR [6]; read-out: cAMP response): 77.1%
- activation at 10 pM (human KOR [6]; read-out: cAMP response): 90.6%
- activation at 31.62 pM (human KOR [6]; read-out: cAMP response): 94.9%
- activation at 0.0001 µM (human KOR [6]; read-out: cAMP response): 99.2%
- activation at 0.001 µM (human KOR [6]; read-out: cAMP response): 99.5%
- activation at 0.01 µM (human KOR [6]; read-out: cAMP response): 101%
- activation at 0.1 µM (human KOR [6]; read-out: cAMP response): 100%
- activation at 1 µM (human KOR [6]; read-out: cAMP response): 98.2%
- activation at […] (human KOR [6]; read-out: cAMP response): 96.6% and 99.9% and 99.6% and 98.7%
- Emax (human KOR [7]): 98 ± 4%
- Emax (human KOR [8]): 99 ± 2%
- Emax (human KOR [9]): 98 ± 3%
- Emax (human KOR [10]): 97 ± 4%
- activation at 3.162 pM (human KOR [10]; read-out: cAMP response): 9.34%
- activation at 31.62 pM (human KOR [10]; read-out: cAMP response): 29.6%
- activation at 0.0001 µM (human KOR [10]; read-out: cAMP response): 36.4%
- activation at 0.001 µM (human KOR [10]; read-out: cAMP response): 68%
- activation at 0.01 µM (human KOR [10]; read-out: cAMP response): 90.9%
- activation at 0.1 µM (human KOR [10]; read-out: cAMP response): 99.9%
- activation at 1 µM (human KOR [10]; read-out: cAMP response): 97.6%
- activation at […] (human KOR [10]; read-out: cAMP response): 66.6% and 88.8% and 97.4% and 103%
- Emax (human KOR [11]): 105 ± 2%
- activation at 1 pM (human KOR [11]; read-out: cAMP response): 16.5%
- activation at 3.162 pM (human KOR [11]; read-out: cAMP response): 13.2%
- activation at 10 pM (human KOR [11]; read-out: cAMP response): 16.1%
- activation at 31.62 pM (human KOR [11]; read-out: cAMP response): 35.7%
- activation at 0.0001 µM (human KOR [11]; read-out: cAMP response): 59%
- activation at 0.001 µM (human KOR [11]; read-out: cAMP response): 95.7%
- activation at 0.01 µM (human KOR [11]; read-out: cAMP response): 103%
- activation at 0.1 µM (human KOR [11]; read-out: cAMP response): 105%
- activation at 1 µM (human KOR [11]; read-out: cAMP response): 105%
- activation at […] (human KOR [11]; read-out: cAMP response): 78.6% and 99.7% and 105% (2×)
- Emax (human KOR (Gi3) [12]): 93.1%
- Emax (human KOR (Gi3) [13]): 98.8%
- Emax (human KOR (Gi3) [14]): 105%
- Emax (human KOR (Gi3) [15]): 77.8%
- Emax (human KOR (Gi3) [16]): 96%
- Emax (human KOR (Gi3) [17]): 81.7%
- Emax (human KOR (Gi3) [18]): 106%
- Emax (human KOR (Gi3) [19]): 107%
- Emax% (human KOR (Gi3) [20]): 99.93%
- Emax (human KOR (Gi3) [20]; HEK-293T): 100%
- Emax (human KOR (Gi3) [21]): 74.8%
